Measurements published in patent publication EP4631937A1, “CRYSTALLINE FORM OR AMORPHOUS FORM OF OXOISOINDOLE-5-FORMAMIDE COMPOUND OR SALT AND SOLVATE THEREOF” (Hangzhou Glubio Pharmaceutical Co., Ltd., priority 2022, dated 2024).

Legend:
Type in all cases: physicochemical
[1] = Stability test of crystalline forms (open container at 25°C/92% RH and 40°C/75% RH, sealed container at 60°C, 13 days; XRPD, HPLC, colour); conditions: initial, before storage; listed as Crystalline form E
Experimental: Placed in a open container at 25°C/92% RH and 40°C/75% RH for 13 days, respectively, or in a sealed container at 60°C for 13 days. […]
(§1) Placed in a open container at 25 °C/92% RH and 40 °C/75% RH for 13 days, respectively, or in a sealed container at 60 °C for 13 days. […]
as §1

[2] = as above; conditions: Solid, 1 week; for Chemical purity / Chiral purity: HPLC/SFC; for Chemical purity / Chiral purity / Solid (XRPD): listed as Crystalline form E
[3] = Hygroscopicity test by DVS, with XRPD after DVS; conditions: 25 °C, listed as Crystalline form E
Experimental: • DVS Intrinsic Dynamic Vapor Sorption Instrument • Gas flow rate 200 sccm, furnace temperature 25 °C.
The hygroscopicity and dehydration behavior of crystalline form B was investigated by DVS. Humidity program: 25 °C, 40-0-95-0-40% RH, dm/dt 0.002, shortest equilibrium time was 60 min, and longest equilibrium time was 360 min. XRPD was also performed on the samples after DVS test to determine whether the crystal transformation occurred.
The hygroscopicity and dehydration behavior of crystalline form E was investigated by DVS. Humidity program: 25 °C, 40-0-95-0-40% RH, dm/dt 0.002, shortest equilibrium time was 60 min, and longest equilibrium time was 360 min. XRPD was also performed on the samples after DVS test to determine whether the crystal transformation occurred.
The hygroscopicity and dehydration behavior of crystalline form G was investigated by DVS. Humidity program: 25 °C, 40-0-95-0-40% RH, dm/dt 0.002, shortest equilibrium time was 60 min, and longest equilibrium time was 360 min. XRPD was also performed on the samples after DVS test to determine whether the crystal transformation occurred.

O=C1CC[C@H](N2Cc3cc(C(=O)N[C@H](c4ccc(Cl)cn4)C4CCC4)ccc3C2=O)C(=O)N1 [crystalline form E, N-((S)-(5-chloropyridin-2-yl)(cyclobutyl)methyl)-2-((S)-2,6-dioxopiperidin-3-yl)-1-oxoisoindoline-5-carboxamide]
Initial purity (HPLC/SFC) Chemical purity [1]: 99.3% See Figure 16a
Initial purity (HPLC/SFC) Chiral purity [1]: 98.7% See Figure 16b
Color ([2]; 25 °C/92% RH, open container): No color change
Chemical purity ([2]; 25 °C/92% RH, open container): 98.3% See Figure 16c
Chiral purity ([2]; 25 °C/92% RH, open container): 98.6% See Figure 16d
Solid (XRPD) ([2]; 25 °C/92% RH, open container): The crystal form did not change, see Figure 16e
Color ([2]; 40 °C/75% RH, open container): No color change
Chemical purity ([2]; 40 °C/75% RH, open container): 98.6% See Figure 16f
Chiral purity ([2]; 40 °C/75% RH, open container): 98.6% See Figure 16g
Solid (XRPD) ([2]; 40 °C/75% RH, open container): The crystal form did not change, see Figure 16e
Color ([2]; 60 °C, sealed container): No color change
Chemical purity ([2]; 60 °C, sealed container): 98.8% See Figure 16h
Chiral purity ([2]; 60 °C, sealed container): 98.7% See Figure 16i
Solid (XRPD) ([2]; 60 °C, sealed container): The crystal form did not change, see Figure 16e
1st adsorption weight change percentage ([3]; relative humidity 0%): 0.1%
1st desorption weight change percentage ([3]; relative humidity 0%): 0.1%
1st adsorption weight change percentage ([3]; relative humidity 10%): 0.3%
1st desorption weight change percentage ([3]; relative humidity 10%): 0.3%
2nd adsorption weight change percentage ([3]; relative humidity 10%): 0.3%
2nd desorption weight change percentage ([3]; relative humidity 10%): 0.3%
1st adsorption weight change percentage ([3]; relative humidity 20%): 1.3%
1st desorption weight change percentage ([3]; relative humidity 20%): 1.3%
2nd adsorption weight change percentage ([3]; relative humidity 20%): 1.3%
2nd desorption weight change percentage ([3]; relative humidity 20%): 1.3%
1st adsorption weight change percentage ([3]; relative humidity 30%): 1.6%
1st desorption weight change percentage ([3]; relative humidity 30%): 1.6%
2nd adsorption weight change percentage ([3]; relative humidity 30%): 1.6%
2nd desorption weight change percentage ([3]; relative humidity 30%): 1.6%
1st adsorption weight change percentage ([3]; relative humidity 40%): 2.0%
1st desorption weight change percentage ([3]; relative humidity 40%): 2.0%
2nd adsorption weight change percentage ([3]; relative humidity 40%): 2.0%
2nd desorption weight change percentage ([3]; relative humidity 40%): 2.0%
1st adsorption weight change percentage ([3]; relative humidity 50%): 2.7%
2nd desorption weight change percentage ([3]; relative humidity 50%): 2.8%
1st adsorption weight change percentage ([3]; relative humidity 60%): 3.1%
2nd desorption weight change percentage ([3]; relative humidity 60%): 3.3%
1st adsorption weight change percentage ([3]; relative humidity 70%): 3.5%
2nd desorption weight change percentage ([3]; relative humidity 70%): 3.5%
1st adsorption weight change percentage ([3]; relative humidity 80%): 3.6%
2nd desorption weight change percentage ([3]; relative humidity 80%): 3.6%
1st adsorption weight change percentage ([3]; relative humidity 90%): 3.8%
2nd desorption weight change percentage ([3]; relative humidity 90%): 3.8%
1st adsorption weight change percentage ([3]; relative humidity 95%): 4.0%
2nd desorption weight change percentage ([3]; relative humidity 95%): 4.0%
XRPD after DVS test ([3]; after 40-0-95-0-40% RH): The crystal form did not change, see Figure 19b
moisture adsorbed (DVS) ([3]; under 40%RH-95%RH): 2.0% of moisture was adsorbed under 40%RH-95%RH, see Figure 19a
